How the values were obtained:
NAMPT = NAMPT (Homo sapiens, UniProt P43490); assay: TR-FRET Binding Assay of NAMPT with PRPP; settings: with 200 μM PRPP and 2.5 mM ATP; 2 nM NAMPT, 2 nM probe, 16 hours equilibration
In short: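 NAMPT 2 nM + probe 2 nM + Tb-anti-His Ab 1 nM; PRPP 200 μM, ATP 2.5 mM, DMSO 2%; 16 h equilibration before TR-FRET read.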

[1] = target: NAMPT (human, recombinant, C-terminally His-tagged) (Homo sapiens, UniProt P43490); assay: Time-Resolved Fluorescence Resonance Energy Transfer (TR-FRET) Binding Assay of NAMPT; settings: without substrates; 6.8 nM NAMPT, 200 nM probe, 3 hours equilibration
NAMPT (human, recombinant, C-terminally His-tagged), sequence (P43490 whole entry): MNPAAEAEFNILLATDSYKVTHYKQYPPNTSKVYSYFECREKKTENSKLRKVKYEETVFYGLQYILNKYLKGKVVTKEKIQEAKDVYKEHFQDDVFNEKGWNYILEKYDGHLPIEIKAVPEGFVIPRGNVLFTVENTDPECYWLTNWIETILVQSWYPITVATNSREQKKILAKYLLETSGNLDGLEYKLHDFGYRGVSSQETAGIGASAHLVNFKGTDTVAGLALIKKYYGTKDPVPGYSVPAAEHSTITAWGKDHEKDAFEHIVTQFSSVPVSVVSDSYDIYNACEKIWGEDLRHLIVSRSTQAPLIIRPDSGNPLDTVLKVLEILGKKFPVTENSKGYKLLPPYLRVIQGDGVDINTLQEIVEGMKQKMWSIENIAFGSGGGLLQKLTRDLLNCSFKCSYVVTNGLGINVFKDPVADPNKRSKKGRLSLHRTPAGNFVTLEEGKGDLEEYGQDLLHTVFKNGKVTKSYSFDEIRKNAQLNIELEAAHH
In short: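 Read-out is the time-resolved FRET ratio Em520/Em495 (excitation 337 nm) between a terbium anti-His antibody (1 nM) on the enzyme and an Oregon Green 488-labelled nicotinamide-competitive inhibitor probe (200 nM). Enzyme was 6.8 nM, DMSO 2%, pH 7.5 HEPES buffer; 3 h room-temperature equilibration preceded reading.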

PC3 cells = assay: NAMPT Cell Proliferation Assay; format: cell-based; settings: Homo sapiens, PC-3, 120 h, 5 days incubation, cell viability by Cell Titer Glo
In short: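 Proliferation of PC3 cells treated 5 days with a 10-fold compound series (top 10 μM) was quantified by Cell Titer Glo luminescence; IC50s were fitted from percent inhibition.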

NAMPT, sequence (P43490 whole entry): as above

Compound | IC50 (NAMPT) [nM] | IC50 [1] [nM] | IC50 (PC3 cells) [nM]
O=C(NCc1ccn2ccnc2c1)c1ccc(N2C[C@@H](O)CC2=O)s1 [Example 268, 5-[(4S)-4-hydroxy-2-oxopyrrolidin-1-yl]-N-(imidazo[1,2-a]pyridin-7-ylmethyl)thiophene-2-carboxamide] | 0.169 | 755 | 5540
COCCn1cc(-c2ccc(C(=O)NCc3ccn4ccnc4c3)s2)cn1 [Example 269, N-(imidazo[1,2-a]pyridin-7-ylmethyl)-5-[1-(2-methoxyethyl)-1H-pyrazol-4-yl]thiophene-2-carboxamide] | 0.169 | 41.2 | 15.1
O=C(NCCCCC1CCN(C(=O)c2ccccc2)CC1)Nc1ccn2ccnc2c1 [Example 270, 1-[4-(1-benzoylpiperidin-4-yl)butyl]-3-imidazo[1,2-a]pyridin-7-ylurea] | 0.991 | 60.9 | 973
CS(=O)(=O)N1CCC(c2ccc(C(=O)NCc3ccn4ccnc4c3)s2)CC1 [Example 271, N-(imidazo[1,2-a]pyridin-7-ylmethyl)-5-[1-(methylsulfonyl)piperidin-4-yl]thiophene-2-carboxamide] | 0.169 | 51.7 | 2.71
CCc1c(-c2ccc(C(=O)NCc3ccn4ccnc4c3)s2)cnn1CC1CCCCC1 [Example 272, 5-[1-(cyclohexylmethyl)-5-ethyl-1H-pyrazol-4-yl]-N-(imidazo[1,2-a]pyridin-7-ylmethyl)thiophene-2-carboxamide] | 0.417 | 27.2 | 15.6
COC1(Cn2ncc(-c3ccc(C(=O)NCc4ccn5ccnc5c4)s3)c2C)CCCC(C)(C)C1 (stereo not drawn) [Example 273, N-(imidazo[1,2-a]pyridin-7-ylmethyl)-5-{1-[(1-methoxy-3,3-dimethylcyclohexyl)methyl]-5-methyl-1H-pyrazol-4-yl}thiophene-2-carboxamide] | 0.555 | 49.3 | 2.35
CC(C)CCC(=O)Nc1ccc(NC(=O)NCc2ccc3nccn3c2)cc1 [Example 274, N-(4-{[(imidazo[1,2-a]pyridin-6-ylmethyl)carbamoyl]amino}phenyl)-4-methylpentanamide] | 0.196 | 17.8 | 10.4
O=C(CCC1CCCC1)Nc1ccc(NC(=O)NCc2ccc3nccn3c2)cc1 [Example 275, 3-cyclopentyl-N-(4-{[(imidazo[1,2-a]pyridin-6-ylmethyl)carbamoyl]amino}phenyl)propanamide] | 0.43 | 12.3 | 23.9
CC(C)OCC(=O)Nc1ccc(NC(=O)NCc2ccc3nccn3c2)cc1 [Example 276, N-(4-{[(imidazo[1,2-a]pyridin-6-ylmethyl)carbamoyl]amino}phenyl)-2-(propan-2-yloxy)acetamide] | 0.468 | 107 | 38.1
O=C(CC1CCCO1)Nc1ccc(NC(=O)NCc2ccc3nccn3c2)cc1 (stereo not drawn) [Example 277, N-(4-{[(imidazo[1,2-a]pyridin-6-ylmethyl)carbamoyl]amino}phenyl)-2-(tetrahydrofuran-2-yl)acetamide] | 0.667 | 103 | 83.2
O=C(CC1CCOCC1)Nc1ccc(NC(=O)NCc2ccc3nccn3c2)cc1 [Example 278, N-(4-{[(imidazo[1,2-a]pyridin-6-ylmethyl)carbamoyl]amino}phenyl)-2-(tetrahydro-2H-pyran-4-yl)acetamide] | 0.621 | 102 | 51.7
O=C(CCc1ccccc1)Nc1ccc(NC(=O)NCc2ccc3nccn3c2)cc1 [Example 279, N-(4-{[(imidazo[1,2-a]pyridin-6-ylmethyl)carbamoyl]amino}phenyl)-3-phenylpropanamide] | 0.437 | 68.8 | 869
CC(C)CCC(=O)Nc1ccc(NC(=O)NCc2ccn3ccnc3c2)cc1 [Example 280, N-(4-{[(imidazo[1,2-a]pyridin-7-ylmethyl)carbamoyl]amino}phenyl)-4-methylpentanamide] | 0.213 | 11.3 | 13
O=C(CCC1CCCC1)Nc1ccc(NC(=O)NCc2ccn3ccnc3c2)cc1 [Example 281, 3-cyclopentyl-N-(4-{[(imidazo[1,2-a]pyridin-7-ylmethyl)carbamoyl]amino}phenyl)propanamide] | 0.214 | 5.5 | 24.8
CC(C)OCC(=O)Nc1ccc(NC(=O)NCc2ccn3ccnc3c2)cc1 [Example 282, N-(4-{[(imidazo[1,2-a]pyridin-7-ylmethyl)carbamoyl]amino}phenyl)-2-(propan-2-yloxy)acetamide] | 0.297 | 76.5 | 44.7
O=C(CC1CCCO1)Nc1ccc(NC(=O)NCc2ccn3ccnc3c2)cc1 (stereo not drawn) [Example 283, N-(4-{[(imidazo[1,2-a]pyridin-7-ylmethyl)carbamoyl]amino}phenyl)-2-(tetrahydrofuran-2-yl)acetamide] | 0.264 | 63.2 | 145
O=C(CC1CCOCC1)Nc1ccc(NC(=O)NCc2ccn3ccnc3c2)cc1 [Example 284, N-(4-{[(imidazo[1,2-a]pyridin-7-ylmethyl)carbamoyl]amino}phenyl)-2-(tetrahydro-2H-pyran-4-yl)acetamide] | 0.169 | 7.96 | 107
O=C(CCc1ccccc1)Nc1ccc(NC(=O)NCc2ccn3ccnc3c2)cc1 [Example 285, N-(4-{[(imidazo[1,2-a]pyridin-7-ylmethyl)carbamoyl]amino}phenyl)-3-phenylpropanamide] | 0.593 | 82.6 | 301
O=C(NCc1ccn2ccnc2c1)Nc1ccc(C2CCN(C(=O)[C@H]3CCOC3)CC2)cc1 [Example 286, 1-(imidazo[1,2-a]pyridin-7-ylmethyl)-3-(4-{1-[(3S)-tetrahydrofuran-3-ylcarbonyl]piperidin-4-yl}phenyl)urea] | 0.412 | 120 | 19.4
O=C(NCc1ccn2ccnc2c1)Nc1ccc(C2CCN(C(=O)[C@@H]3CCOC3)CC2)cc1 [Example 287, 1-(imidazo[1,2-a]pyridin-7-ylmethyl)-3-(4-{1-[(3R)-tetrahydrofuran-3-ylcarbonyl]piperidin-4-yl}phenyl)urea] | 0.351 | 67.3 | 24.1
O=C(NCc1ccn2ccnc2c1)Nc1ccc(C2CCN(C(=O)[C@@H]3CCCO3)CC2)cc1 [Example 288, 1-(imidazo[1,2-a]pyridin-7-ylmethyl)-3-(4-{1-[(2S)-tetrahydrofuran-2-ylcarbonyl]piperidin-4-yl}phenyl)urea] | 0.568 | 49.5 | 8.11
O=C(NCc1ccn2ccnc2c1)Nc1ccc(C2CCN(C(=O)[C@H]3CCCO3)CC2)cc1 [Example 289, 1-(imidazo[1,2-a]pyridin-7-ylmethyl)-3-(4-{1-[(2R)-tetrahydrofuran-2-ylcarbonyl]piperidin-4-yl}phenyl)urea] | 0.286 | 155 | 9.33
CC(C)(C)OC(=O)N1CC=C(c2ccc(NC(=O)NCc3ccn4ccnc4c3)c(F)c2)CC1 [Example 290, tert-butyl 4-(3-fluoro-4-{[(imidazo[1,2-a]pyridin-7-ylmethyl)carbamoyl]amino}phenyl)-3,6-dihydropyridine-1(2H)-carboxylate] | 0.96 | 415 | 72.2
CC(C)(C)OC(=O)N1CC[C@H](Oc2ccc(NC(=O)NCc3ccn4ccnc4c3)cc2)C1 [Example 291, tert-butyl (3S)-3-(4-{[(imidazo[1,2-a]pyridin-7-ylmethyl)carbamoyl]amino}phenoxy)pyrrolidine-1-carboxylate] | 0.449 | 159 | 26.1
CC(C)(C)OC(=O)Nc1ccc(C(=O)NCc2ccn3ccnc3c2)cc1F [Example 292, tert-butyl {2-fluoro-4-[(imidazo[1,2-a]pyridin-7-ylmethyl)carbamoyl]phenyl}carbamate] | 1.15 | 1540 | 7220
CCCn1cc(-c2ccc(C(=O)NCc3ccn4ccnc4c3)s2)cn1 [Example 293, N-(imidazo[1,2-a]pyridin-7-ylmethyl)-5-(1-propyl-1H-pyrazol-4-yl)thiophene-2-carboxamide] | 0.169 | 27.3 | 7.74
O=C(NCc1ccn2ccnc2c1)c1ccc(-c2cnn(CCN3CCOCC3)c2)s1 [Example 294, N-(imidazo[1,2-a]pyridin-7-ylmethyl)-5-{1-[2-(morpholin-4-yl)ethyl]-1H-pyrazol-4-yl}thiophene-2-carboxamide] | 0.169 | 44.7 | 1.88
CCn1cc(-c2ccc(C(=O)NCc3ccn4ccnc4c3)s2)cn1 [Example 295, 5-(1-ethyl-1H-pyrazol-4-yl)-N-(imidazo[1,2-a]pyridin-7-ylmethyl)thiophene-2-carboxamide] | 0.292 | 56.1 | 24.2

Source: patent US9187472B2 (AbbVie Inc., priority 2012, dated 2015)
